Test results taken from patent US12358892B2, “Metalloenzyme inhibitors for treating cancers, Alzheimer's disease, hemochromatosis, and other disorders” (Miralogx LLC, priority 2020, dated 2025).
“Also recorded” adds a separate entry of the source.

Experiments:
[1] = tested on: NCI-H1299 NSCLC cell line; test: BioMAP Oncology NSCLC panel (StroNSCLC and VascNSCLC systems); assay type: cell-based, human
Text: The BioMAP® oncology system used in this Example is a coculture of primary human immune cells with primary tissue cells in the presence of the NSCL cells. In particular, The BioMAP® Oncology NSCLC panel models the interactions between the immune-stromal (fibroblasts) and immune-vascular (endothelial cells) environments in the context of non-small lung cancer (NCI-H1299 NSCLC cell line). The interactions between tumor cells, stimulated immune cells (peripheral blood mononuclear cells [PBMC]), and the host stromal network (human neonatal dermal fibroblasts [HDFn]) are captured in the StroNSCLC system. In parallel, the VascNSCLC system captures the interactions between tumor cells, activated immune cells and the vascular tissue (human umbilical vein endothelial cells [HUVEC]). The biomarkers selected for the BioMAP® Non-small Cell Lung Cancer (NSCLC) panel inform on activities related to inflammation, immune-function, tissue remodeling and metastasis in the context of a host tumor-microenvironment.
(§1) A signature BioMAP® profile that is reflective of the changes in protein biomarker readouts within an individual system is generated for each test agent. Biomarker readouts selected for therapeutic and biological relevance are predictive for disease outcomes or specific drug effects, and have been validated using agents with known clinical efficacy. Each readout is measured quantitatively by immune-based receptors, cytokines, chemokines, matrix molecules and enzymes. In total, the 42 biomarker readouts in the NSCLC panel capture the biological changes that occur within the physiological context of each particular BioMAP® system.
(§2) The BioMAP® Non-small Cell Lung Cancer (NSCLC) panel allows a focused in vitro evaluation of the impact of an agent in a model system that includes the hierarchical signaling networks that exist between interacting pathways and cells in a disease relevant setting. To represent the changes that are occurring in these complex systems, biomarker readouts with the ability to integrate and distinguish changes in different regulatory networks have been selected.
(§3) Data analysis of the results was performed as described in detail above in Example 3.1. Briefly, biomarker activities are annotated when at least one concentration of the test agent is outside of the significance envelope with an effect size >20% compared to the vehicle control (|log 10 ratio|>0.1) and a p-value <0.01. Cytotoxic conditions are noted when total protein levels decrease by more than 50% (log 10 ratio of SRB <−0.3). Biomarker key activities are described as modulated if these activities increase in some systems, but decrease in others.

[2] = tested on: HT-29 colorectal adenocarcinoma cell line; test: BioMAP Oncology CRC panel (StroHT29 and VascHT29 systems); assay type: cell-based, human
Text: The BioMAP® oncology system used in this Example is a coculture of primary human immune cells with primary tissue cells in the presence of the Colorectal Cancer (CRC) cells. In particular, The BioMAP® Oncology CRC panel models the interactions between the immune-stromal (fibroblasts) and immune-vascular (endothelial cells) environments in the context of colorectal cancer (HT-29 colorectal adenocarcinoma cell line). The interactions between tumor cells, stimulated immune cells (peripheral blood mononuclear cells [PBMC]), and the host stromal network (human neonatal dermal fibroblasts [HDFn]) are captured in the StroHT29 system. In parallel, the VascHT29 system captures the interactions between tumor cells, activated immune cells and the vascular tissue (human umbilical vein endothelial cells [HUVEC]). The biomarkers selected for the BioMAP® Colorectal Cancer (CRC) panel inform on activities related to inflammation, immune-function, tissue remodeling and metastasis in the context of a host tumor-microenvironment.
as §1, with “41” for “42”, “CRC” for “NSCLC”
as §2, with “CRC” for “Non-small Cell Lung Cancer (NSCLC)”
as §3

[3] = 7.4 μM, 22 μM, 67 μM, Angiogenesis related activities
[4] = 7.4 μM, 22 μM, 67 μM, Immune-related activities
[5] = 7.4 μM, 22 μM, 67 μM, Inflammation related activities
[6] = 7.4 μM, 22 μM, 67 μM, Matrix remodeling activities
[7] = 7.4 μM, 22 μM, 67 μM, Tumor-related activities

SMILES: C1=NC(c2cncc(C3CCC=N3)c2)CC1 (stereo not shown) [3,5-bis(3,4-dihydro-2H-pyrrol-2-yl)pyridine]
- Decreased activity: uPA [1, 3]: decreased and uPA
- Increased activity: tPA [1, 3]: increased and tPA
- Decreased Activity: sIL-6 [1, 4]: decreased
- Decreased activity: sGranB [1, 4]: decreased; also recorded: sGranB
- Decreased activity: sIFNγ [1, 4]: decreased; also recorded: SIFNG
- Decreased activity: sIL-2 [1, 4]: decreased
- Decreased activity: sIL-4 [1, 4]: decreased; also recorded: SIL-4
- Decreased activity: sIL-10 [1, 4]: decreased
- Decreased activity: sIL-13 [1, 4]: decreased
- Decreased activity: sIL-17A [1, 4]: decreased; also recorded: SIL-17A
- Decreased Activity: sTNFα [1, 5]: decreased; also recorded: STNFa
- Decreased activity: VCAM-1 [1, 5]: decreased; also recorded: VCAM-1
- Decreased activity: sMDC [1, 5]: decreased
- Increased activity: IP-10 [1, 5]: increased; also recorded: IP-10
- Increased activity: Collagen III [1, 6]: increased; also recorded: Col-III
- Increased activity: EGFR [1, 6]: increased and EGFR
- Increased activity: HGF [1, 6]: increased and HGF
- annotated readouts ([1]; BioMAP Oncology NSCLC Panel): 21
- annotated activities ([1]; StroNSCLC system): 16
- annotated activities ([1]; VascNSCLC system): five
- cytotoxicity ([1]; at 200 μM): cytotoxic
- cytotoxicity in the VascNSCLC system ([1]; at 200 μM, VascNSCLC system): detectable cytotoxicity
- Decreased activity: PAI-I [2, 3]: decreased; also recorded: PAI-I
- Decreased activity: tPA [2, 3]: decreased and tPA
- Decreased activity: uPA [2, 3]: decreased and uPA
- Increased activity: sVEGF [2, 3]: increased; also recorded: SVEGF
- Decreased Activity: sIL-6 [2, 4]: decreased
- Decreased activity: CD40 [2, 4]: decreased and CD40
- Decreased activity: CD69 [2, 4]: decreased and CD69
- Decreased activity: sGranB [2, 4]: decreased; also recorded: sGranB
- Decreased activity: sIFNγ [2, 4]: decreased; also recorded: SIFNG
- Decreased activity: sIL-2 [2, 4]: decreased; also recorded: sIL-2
- Decreased activity: sIL-10 (Table 8) / sIL-1β [2, 4]: decreased
- Decreased activity: sIL-17A [2, 4]: decreased
- Decreased activity: IP-10 [2, 5]: decreased; also recorded: IP-10
- Decreased activity: MCP-1 [2, 5]: decreased; also recorded: MCP-1
- Decreased activity: MIG [2, 5]: decreased and MIG
- Decreased activity: VCAM-1 [2, 5]: decreased; also recorded: VCAM-1
- Decreased activity: Collagen I [2, 6]: decreased; also recorded: Col-I
- Decreased activity: Collagen III [2, 6]: decreased and Col-
- Decreased activity: Collagen IV [2, 6]: decreased; also recorded: Col-IV
- Decreased activity: MMP9 [2, 6]: decreased and MMP9
- Decreased activity: TIMP2 [2, 6]: decreased; also recorded: TIMP2
- Decreased activity: CEACAM5 [2, 7]: decreased; also recorded: CEACAM5
- Decreased activity: Keratin 20 [2, 7]: decreased
- cytotoxicity ([2]; at 200 μM): cytotoxic
